Measured values reported in US9518018B2, “3-alkoxy, thioalkyl and amino-4-amino-6-(substituted)picolinates and their use as herbicides” (Dow AgroSciences LLC, priority 2011, dated 2016).

Key:
Assay in all cases: Post-Emergent Test I herbicidal activity
Type in all cases: in vivo
[1] = tested on: ECHCG: barnyardgrass (Echinochloa crus-galli); settings: post-emergence, 336 h, read-out: Visual Growth Reduction (%)-14 Days after Application ECHCG; for pest or weed control at 280 g/ha: Table 3, 280 g ai/ha; for pest or weed control at 140 g/ha: Table 3, 140 g ai/ha
Procedure: (§1) Seeds or nutlets of the desired test plant species were planted in Sun Gro Metro-Mix® 360 planting mixture, which typically has a pH of 6.0 to 6.8 and an organic matter content of about 30 percent, in plastic pots with a surface area of 64 square centimeters. When required to ensure good germination and healthy plants, a fungicide treatment and/or other chemical or physical treatment was applied. The plants were grown for 7-21 d in a greenhouse with an approximate 15 h photoperiod which was maintained at about 23-29° C. during the day and 22-28° C. during the night. Nutrients and water were added on a regular basis and supplemental lighting was provided with overhead metal halide 1000-Watt lamps as necessary. The plants were employed for testing when they reached the first or second true leaf stage.
(§2) A weighed amount, determined by the highest rate to be tested, of each test compound was placed in a 25 mL glass vial and was dissolved in 4 mL of a 97:3 v/v mixture of acetone and DMSO to obtain concentrated stock solutions. […] The concentrated stock solutions obtained were diluted with 20 mL of an aqueous mixture containing acetone, water, isopropyl alcohol, DMSO, Atplus 411F crop oil concentrate, and Triton® X-155 surfactant in a 48.5:39:10:1.5:1.0:0.02 v/v ratio to obtain spray solutions containing the highest application rates. Additional application rates were obtained by serial dilution of 12 mL of the high rate solution into a solution containing 2 mL of 97:3 v/v mixture of acetone and DMSO and 10 mL of an aqueous mixture containing acetone, water, isopropyl alcohol, DMSO, Atplus 411F crop oil concentrate, and Triton X-155 surfactant in a 48.5:39:10:1.5:1.0:0.02 v/v ratio to obtain ½×, ¼×, ⅛× and 1/16× rates of the high rate. Compound requirements are based upon a 12 mL application volume at a rate of 187 liters per hectare (L/ha). Formulated compounds were applied to the plant material with an overhead Mandel track sprayer equipped with 8002E nozzles calibrated to deliver 187 L/ha over an application area of 0.503 square meters at a spray height of 18 inches (43 cm) above the average plant canopy height. Control plants were sprayed in the same manner with the solvent blank.
(§3) The treated plants and control plants were placed in a greenhouse as described above and watered by subirrigation to prevent wash-off of the test compounds. After 14 d, the condition of the test plants as compared with that of the untreated plants was determined visually and scored on a scale of 0 to 100 percent where 0 corresponds to no injury and 100 corresponds to complete kill.
(§4) By applying the well-accepted probit analysis as described by J. Berkson in Journal of the […], 48, 565 (1953) and by D. Finney in “Probit Analysis” Cambridge University Press (1952), the above data can be used to calculate GR20, GR50 and GR80 values, which are defined as growth reduction factors that correspond to the effective dose of herbicide required to kill or control 20 percent, 50 percent or 80 percent, respectively, of a target plant.

ZEAMX: corn (Zea mays) = settings: Zea mays, post-emergence, 336 h, read-out: Visual Growth Reduction (%)-14 Days after Application ZEAMX; for pest or weed control at 280 g/ha: Table 3, 280 g ai/ha; for pest or weed control at 140 g/ha: Table 3, 140 g ai/ha
Procedure: as §1, §2, §3, §4

[2] = tested on: EPHHL: wild poinsettia (Euphorbia heterophylla); settings: post-emergence, 336 h, read-out: Visual Growth Reduction (%)-14 Days after Application EPHHL; for pest or weed control at 280 g/ha: Table 3, 280 g ai/ha; for pest or weed control at 140 g/ha: Table 3, 140 g ai/ha
Procedure: as §1, §2, §3, §4

[3] = tested on: CYPES: yellow nutsedge (Cyperus esculentus); settings: post-emergence, 336 h, read-out: Visual Growth Reduction (%)-14 Days after Application CYPES; for pest or weed control at 280 g/ha: Table 3, 280 g ai/ha; for pest or weed control at 140 g/ha: Table 3, 140 g ai/ha
Procedure: as §1, §2, §3, §4

[4] = tested on: CHEAL: lambsquarters (Chenopodium album); settings: Chenopodium album, post-emergence, 336 h, read-out: Visual Growth Reduction (%)-14 Days after Application CHEAL; for pest or weed control at 280 g/ha: Table 3, 280 g ai/ha; for pest or weed control at 140 g/ha: Table 3, 140 g ai/ha
Procedure: as §1, §2, §3, §4

[5] = tested on: ORYSA: rice (Oryza sativa); settings: post-emergence, 336 h, read-out: Visual Growth Reduction (%)-14 Days after Application ORYSA; for pest or weed control at 280 g/ha: Table 3, 280 g ai/ha; for pest or weed control at 140 g/ha: Table 3, 140 g ai/ha
Procedure: as §1, §2, §3, §4

[6] = tested on: ABUTH: velvetleaf (Abutilon theophrasti); settings: Abutilon theophrasti, post-emergence, 336 h, read-out: Visual Growth Reduction (%)-14 Days after Application ABUTH; for pest or weed control at 280 g/ha: Table 3, 280 g ai/ha; for pest or weed control at 140 g/ha: Table 3, 140 g ai/ha
Procedure: as §1, §2, §3, §4

SMILES | pest or weed control at 140 g/ha [1] | pest or weed control at 140 g/ha (ZEAMX: corn (Zea mays)) | pest or weed control at 140 g/ha [2] | pest or weed control at 140 g/ha [3] | pest or weed control at 140 g/ha [4] | pest or weed control at 140 g/ha [5] | pest or weed control at 140 g/ha [6] | further results
Nc1cc(-c2ccc(Cl)cc2F)nc(C(=O)O)c1OCC(F)(F)F [Compound 70] | – | – | – | – | – | – | – | pest or weed control at 280 g/ha [1]: 0%; pest or weed control at 280 g/ha (ZEAMX: corn (Zea mays)): 75%; pest or weed control at 280 g/ha [2]: 100%; pest or weed control at 280 g/ha [3]: 85%; pest or weed control at 280 g/ha [4]: 25%; pest or weed control at 280 g/ha [5]: 0%; pest or weed control at 280 g/ha [6]: 50%
COC(=O)c1nc(-c2ccc3c(c2F)OCO3)c(F)c(N)c1OC [Compound 42] | 0% | 75% | 100% | 10% | 90% | 0% | 60% | –
C=Cc1nc(C(=O)OC)c(OC)c(N)c1F [Compound 12, methyl 4-amino-5-fluoro-3-methoxy-6-vinylpicolinate] | – | – | – | – | – | – | – | pest or weed control at 280 g/ha [1]: 0%; pest or weed control at 280 g/ha (ZEAMX: corn (Zea mays)): 0%; pest or weed control at 280 g/ha [2]: 0%; pest or weed control at 280 g/ha [3]: 0%; pest or weed control at 280 g/ha [4]: 70%; pest or weed control at 280 g/ha [5]: 0%; pest or weed control at 280 g/ha [6]: 0%
COC(=O)c1nc(-c2ccc(I)c(F)c2F)c(F)c(N)c1OC [Compound 24] | 50% | 75% | 100% | 100% | 65% | 0% | 60% | –
COc1c(C(=O)O)nc(-c2ccc(C3CC3)nc2)c(F)c1N [Compound 77, 4-amino-6′-cyclopropyl-3-fluoro-5-methoxy-[2,3′-bipyridine]-6-carboxylic acid] | 85% | 95% | 95% | 90% | 75% | 65% | 80% | –
COc1ccc(-c2nc(C(=O)O)c(OC)c(N)c2F)cn1 [Compound 78, 4-amino-3-fluoro-5,6′-dimethoxy-[2,3′-bipyridine]-6-carboxylic acid] | – | – | – | – | – | – | – | pest or weed control at 70 g/ha ([1]; Table 3, 70 g ai/ha): 85%; pest or weed control at 70 g/ha (ZEAMX: corn (Zea mays); Table 3, 70 g ai/ha): 80%; pest or weed control at 70 g/ha ([2]; Table 3, 70 g ai/ha): 80%; pest or weed control at 70 g/ha ([3]; Table 3, 70 g ai/ha): 80%; pest or weed control at 70 g/ha ([4]; Table 3, 70 g ai/ha): 97%; pest or weed control at 70 g/ha ([5]; Table 3, 70 g ai/ha): 50%; pest or weed control at 70 g/ha ([6]; Table 3, 70 g ai/ha): 80%
COC(=O)c1nc(Cl)c(F)c(N)c1OC [Compound 10, methyl 4-amino-6-chloro-5-fluoro-3-methoxypicolinate] | – | – | – | – | – | – | – | pest or weed control at 280 g/ha [1]: 0%; pest or weed control at 280 g/ha (ZEAMX: corn (Zea mays)): 25%; pest or weed control at 280 g/ha [2]: 100%; pest or weed control at 280 g/ha [3]: 0%; pest or weed control at 280 g/ha [4]: 100%; pest or weed control at 280 g/ha [5]: 0%; pest or weed control at 280 g/ha [6]: 100%
COC(=O)c1nc(-c2ccc(Cl)c(C(C)F)c2F)c(F)c(N)c1OC (centres unmarked) [Compound 33, methyl 4-amino-6-(4-chloro-2-fluoro-3-(1-fluoroethyl)phenyl)-5-fluoro-3-methoxypicolinate] | 80% | 70% | 100% | 100% | 100% | 0% | 100% | –
COC(=O)c1nc(-c2ccc(Br)cc2F)c(F)c(N)c1OC [Compound 22] | 90% | 70% | 100% | 50% | 100% | 0% | 60% | –
C=Cc1nc(C(=O)O)c(OC)c(N)c1F [Compound 95, 4-amino-5-fluoro-3-methoxy-6-vinylpicolinic acid] | 0% | 0% | 30% | 0% | 60% | 0% | 0% | –
CCOC(=O)c1nc(-c2ccc(Cl)c(OC)c2F)cc(N)c1OC(F)F [Compound 8, ethyl 4-amino-6-(4-chloro-2-fluoro-3-methoxyphenyl)-3-(difluoromethoxy)picolinate] | – | – | – | – | – | – | – | pest or weed control at 280 g/ha [1]: 0%; pest or weed control at 280 g/ha (ZEAMX: corn (Zea mays)): 0%; pest or weed control at 280 g/ha [2]: 90%; pest or weed control at 280 g/ha [3]: 0%; pest or weed control at 280 g/ha [4]: 30%; pest or weed control at 280 g/ha [5]: 0%; pest or weed control at 280 g/ha [6]: 25%
COC(=O)c1nc(-c2ccc(Cl)cc2F)cc(NC(C)=O)c1OC [Compound 4, Methyl 4-acetamido-6-(4-chloro-2-fluorophenyl)-3-methoxypicolinate] | 0% | 0% | 100% | 0% | 100% | 0% | 80% | –
COC(=O)c1nc(-c2ccc(I)cc2F)c(F)c(N)c1OC [Compound 26] | 55% | 75% | 100% | 50% | 90% | 0% | 10% | –
COC(=O)c1nc(-c2ccc(OC)nc2)c(F)c(N)c1OC [Compound 75, methyl 4-amino-3-fluoro-5,6′-dimethoxy-[2,3′-bipyridine]-6-carboxylate] | 0% | 85% | 85% | 95% | 85% | 0% | 90% | –
